In patent US20230390345A1, “COMBINATION THERAPY COMPRISING HER-2-DC1 VACCINE, A PROBIOTIC, AND SEMAPHORIN” (H. LEE MOFFITT CANCER CENTER AND RESEARCH INSTITUTE, INC., priority 2020, published 2023) one finds tumor growth data, which are given here for one molecule.

The subject of assay [1] is TUBO tumors. The assay is described as follows: Monotherapies in HER2+ BC murine model (FIG. 8). To be noted: monotherapy. The assay is classed as in vivo, Balb/C mice. How it is done: (§1) Balb/C mice or C57BL/6 mice received tumor cells on day 0 followed by different treatments; two doses of Taxol given intraperitoneally (i.p.) once a week; CDK inhibitor, abemaciclib was administered by oral gavage till end point; Anti-PD-L1 was given i.p. twice a week until end point; DC1 vaccine was given intratumorally.

Assay [2] concerns 4T1. The assay is described as follows: Therapies in TNBC model 4T1 (FIG. 8). To be noted: 4T1 TNBC model. Format: in vivo, Balb/C mice. How it is done:
as §1

For `CC(=O)O[C@H]1C(=O)[C@@]2(C)[C@H]([C@H](OC(=O)c3ccccc3)[C@]3(O)C[C@H](OC(=O)[C@H](O)[C@@H](NC(=O)c4ccccc4)c4ccccc4)C(C)=C1C3(C)C)[C@]1(OC(C)=O)CO[C@@H]1C[C@@H]2O` [taxol, paclitaxel], the tumor growth entry is recorded as “modestly delayed tumor growth” in assay [1] and “no effect on tumor growth” in assay [2].
